We go through 30 molecules from the SangsterLogP compilation.

This data set can be described thus: method code SF-AS, from DOI: 10.1135/cccc19851642.

Molecules are shown by their SMILES.

As for `CC(C)(C)OC(=O)C=Cc1ccc([N+](=O)[O-])o1`, the log partition coefficient (logP) (as a rule, the decadic logarithm of the partition coefficient of the neutral form, usually between octanol and water) came to 3.09.

`O=[N+]([O-])/C=C/c1ccc([N+](=O)[O-])o1` had a logP of 1.3.

As for `CCCCCOC(=O)C=Cc1ccc([N+](=O)[O-])o1`, the logP came out at 3.4.

For the molecule `COC(=O)/C(C#N)=C/c1ccc(SC)o1`, the logP worked out at 2.61.

Regarding `COC(=O)/C(C#N)=C/c1ccc(C)o1`, the logP worked out at 2.09.

`CCOC(=O)/C=C/c1ccc([N+](=O)[O-])o1` had a log partition coefficient (logP) of 2.1. The logP values of the last two molecules are within 0.2 log units of each other.

`CCCOC(=O)C=Cc1ccc([N+](=O)[O-])o1` had a lipophilicity (logP) of 2.67.

In turn, `NC(=O)/C=C/c1ccc([N+](=O)[O-])o1` had a logP of 0.65.

Consider `CCCCNC(=O)C=Cc1ccc([N+](=O)[O-])o1`, for which the logP came to 2.36.

As for `CCCCOC(=O)C=Cc1ccc([N+](=O)[O-])o1`, the logP was 2.83.

Molecule `O=[N+]([O-])c1ccc(C=CBr)o1` had a lipophilicity (logP) of 2.45.

Molecule `CC(C)NC(=O)/C=C/c1ccc([N+](=O)[O-])o1` yielded a log partition coefficient (logP) of 1.8.

`CC(C)(C)NC(=O)C=Cc1ccc([N+](=O)[O-])o1`: the logP was 2.33.

In the case of `CSc1ccc(C=C(C#N)C#N)o1`, the logP was 2.45.

The molecule `CC(C)OC(=O)/C=C/c1ccc([N+](=O)[O-])o1` came in with a lipophilicity (logP) of 2.64.

As to `CN(C)C(=O)/C=C/c1ccc([N+](=O)[O-])o1`, the logP came out at 0.82.

`CC(C)(C)CNC(=O)C=Cc1ccc([N+](=O)[O-])o1` yielded a log partition coefficient (logP) of 2.61.

Regarding `CCCNC(=O)C=Cc1ccc([N+](=O)[O-])o1`, the logP was 1.86.

As for `CCNC(=O)C=Cc1ccc([N+](=O)[O-])o1`, the logP came out at 1.39.

Take `N#CC(C#N)=Cc1ccc(I)o1`: the lipophilicity (logP) is 2.42.

`CCC(C)OC(=O)/C=C/c1ccc([N+](=O)[O-])o1` (stereo not given) gave a lipophilicity (logP) of 3.09.

`CCCCCCCCCCCC(C)NC(=O)C=Cc1ccc([N+](=O)[O-])o1` (stereo not given): the logP came to 3.7.

Turning to `CCC(C)NC(=O)C=Cc1ccc([N+](=O)[O-])o1` (stereo not given), the logP is 2.28.

The molecule `COC(=O)C(C#N)=Cc1ccc(I)o1` came in with a log partition coefficient (logP) of 2.75.

Take `O=C(O)/C=C/c1ccc([N+](=O)[O-])o1`: the logP worked out at 0.68.

Regarding `CC(C)CNC(=O)C=Cc1ccc([N+](=O)[O-])o1`, the log partition coefficient (logP) was 2.23.

For the molecule `CNC(=O)C=Cc1ccc([N+](=O)[O-])o1`, the log partition coefficient (logP) stood at 0.98.

For the molecule `COC(=O)C(C#N)=Cc1ccc(Br)o1`, the logP worked out at 2.41.

On to `CC(C)COC(=O)/C=C/c1ccc([N+](=O)[O-])o1`, for which the logP worked out at 3.14.

The molecule `CCOC(=O)C(=Cc1ccc([N+](=O)[O-])o1)C(=O)OCC` returned a logP of 2.5.
